The record followed here is patent US10934298B2, “Substituted pyrazolo[1,5-a]pyrimidines for the treatment of medical disorders” (BIAL—BioTech Investments, Inc., priority 2016, dated 2021).

The assay has as its target T1, glucocerebrosidase (Gcase) (Homo sapiens, UniProt P04062).
T1 construct: micellar solution containing 10 nM GCase and 100 nM saposin C
T1 sequence (P04062 40-536): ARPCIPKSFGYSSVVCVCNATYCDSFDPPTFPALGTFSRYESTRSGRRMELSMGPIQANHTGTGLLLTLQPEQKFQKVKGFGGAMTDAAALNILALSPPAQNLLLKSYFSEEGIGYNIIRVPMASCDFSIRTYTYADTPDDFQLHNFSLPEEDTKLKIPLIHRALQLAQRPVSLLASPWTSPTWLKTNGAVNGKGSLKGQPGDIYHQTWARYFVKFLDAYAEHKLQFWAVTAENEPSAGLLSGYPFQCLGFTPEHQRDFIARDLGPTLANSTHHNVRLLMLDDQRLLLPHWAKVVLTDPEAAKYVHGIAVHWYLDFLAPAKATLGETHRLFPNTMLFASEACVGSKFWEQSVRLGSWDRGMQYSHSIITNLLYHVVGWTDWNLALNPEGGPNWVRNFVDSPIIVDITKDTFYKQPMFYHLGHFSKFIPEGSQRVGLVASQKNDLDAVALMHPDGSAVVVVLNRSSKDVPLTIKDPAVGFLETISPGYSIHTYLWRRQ
Put plainly: Glucocerebrosidase (Gcase) activation assay with 4-methylumbelliferyl-beta-D-glucopyranoside substrate, saposin C and phosphatidylserine/triton micelles, fluorescence readout. It counts as biochemical. The following applies: Table 3A. On the procedure: The ability of exemplary compounds to activate glucocerebrosidase (Gcase) was measured.
A 484 μL aliquot of a 1.0 mg/mL solution of phosphatidylserine (PS) (Sigma P7769) in chloroform was evaporated under a stream of nitrogen for 1 hour. The lipid film was dissolved over 4 minutes of vigorous vortexing in 40 mL of 176 mM K2HPO4/50 mM citric acid (pH 4.7) containing 7.5 μL of triton X-100, resulting in a mixed micellar preparation with a composition of 0.32 mM triton and 0.37 mol % PS. 4-Methylumbelliferyl-beta-D-glucopyranoside (ACROS-337025000) was dissolved in the micellar solution to a final concentration of 2 mM for use as the reaction substrate.
Test compounds were diluted to the desired concentrations with dimethylsulfoxide (DMSO) from 10 mM stocks, and 0.41 μL of the DMSO compound mixture was added to 100 μL of micellar solution containing 10 nM GCase and 100 nM saposin C (Enzo ALX-201-262-C050). Pre-incubation was allowed to occur for 30 minutes at room temperature, after which the reaction was initiated by combining 25 μL of substrate solution with 25 μL of compound/GCase/saposin mixture. The reaction proceeded for 15 minutes at room temperature and was stopped by adding 150 μL of 1M glycine, pH 12.5. The endpoint of the reaction was monitored by measuring fluorescence intensity (excitation: 365 nm; emission: 440 nm) on a SpectraMax i3 instrument (Molecular Devices). Test compounds were screened at 1.0 and 0.1 μM final concentration, and subsequent 8-point dose response curves were obtained using 3-fold dilutions from a maximum final concentration of 5 μM.

With `Cc1cc(-c2ccccn2)n2ncc(C(=O)NC(C)(C)C3CC3)c2n1` [III-17], the “Percent Gcase Activation, 0.1 μM Test Compound” value is “* (less than 10% Gcase activation)” and the “Percent Gcase Activation, 1 μM Test Compound” value is reported as “+ (less than 30% Gcase activation)”.

Consider `Cc1cc(-c2cccnc2)nc2c(C(=O)NC(C)(C)C3CC3)cnn12` [III-18], for which the “Percent Gcase Activation, 0.1 μM Test Compound” value is on record as “** (Gcase activation in the range of 10% up to 20%)” and the “Percent Gcase Activation, 1 μM Test Compound” value is on record as “+++ (Gcase activation greater than 60%)”.

As to `Cc1cc(-c2cccnc2)n2ncc(C(=O)NC(C)(C)C3CC3)c2n1` [III-19], the “Percent Gcase Activation, 0.1 μM Test Compound” value was “* (less than 10% Gcase activation)” and the “Percent Gcase Activation, 1 μM Test Compound” value was “+ (less than 30% Gcase activation)”.

For `Cc1cc(-c2ccncc2)nc2c(C(=O)NC(C)(C)C3CC3)cnn12` [III-20], the “Percent Gcase Activation, 0.1 μM Test Compound” value was “* (less than 10% Gcase activation)” and the “Percent Gcase Activation, 1 μM Test Compound” value is recorded as “+++ (Gcase activation greater than 60%)”.

On to `Cc1cc(-c2ccncc2)n2ncc(C(=O)NC(C)(C)C3CC3)c2n1` [III-21], for which the “Percent Gcase Activation, 0.1 μM Test Compound” value is listed as “* (less than 10% Gcase activation)” and the “Percent Gcase Activation, 1 μM Test Compound” value was “+ (less than 30% Gcase activation)”.

On to `Cc1cc(N2CCCCC2)n2ncc(C(=O)NC(C)(C)C3CC3)c2n1` [III-22], for which the “Percent Gcase Activation, 0.1 μM Test Compound” value was “* (less than 10% Gcase activation)” and the “Percent Gcase Activation, 1 μM Test Compound” value is “++ (Gcase activation in the range of 30% up to 60%)”.

As to `Cc1cc(N2CCCCC2)nc2c(C(=O)NC(C)(C)C3CC3)cnn12` [III-23], the “Percent Gcase Activation, 0.1 μM Test Compound” value was “*** (greater than 20% Gcase activation)” and the “Percent Gcase Activation, 1 μM Test Compound” value is on record as “+++ (Gcase activation greater than 60%)”.

Regarding `Cc1cc(-c2ccccn2)n2ncc(C(=O)N[C@@H](C)C3CC3)c2n1` [III-25], the “Percent Gcase Activation, 0.1 μM Test Compound” value is “* (less than 10% Gcase activation)” and the “Percent Gcase Activation, 1 μM Test Compound” value was “+ (less than 30% Gcase activation)”.

`Cc1cc(-c2cccnc2)n2ncc(C(=O)N[C@@H](C)C3CC3)c2n1` [III-27]: the “Percent Gcase Activation, 0.1 μM Test Compound” value is reported as “* (less than 10% Gcase activation)” and the “Percent Gcase Activation, 1 μM Test Compound” value is reported as “+ (less than 30% Gcase activation)”.

As for `Cc1cc(-c2ccncc2)nc2c(C(=O)NC(C)C3CC3)cnn12` (stereo not shown) [III-28], the “Percent Gcase Activation, 0.1 μM Test Compound” value is listed as “* (less than 10% Gcase activation)” and the “Percent Gcase Activation, 1 μM Test Compound” value is “++ (Gcase activation in the range of 30% up to 60%)”.

`Cc1cc(-c2ccncc2)n2ncc(C(=O)N[C@@H](C)C3CC3)c2n1` [III-29]: the “Percent Gcase Activation, 0.1 μM Test Compound” value is recorded as “* (less than 10% Gcase activation)” and the “Percent Gcase Activation, 1 μM Test Compound” value was “+ (less than 30% Gcase activation)”.

As for `Cc1cc(N2CCCCC2)n2ncc(C(=O)N[C@@H](C)C3CC3)c2n1` [III-30], the “Percent Gcase Activation, 0.1 μM Test Compound” value is given as “* (less than 10% Gcase activation)” and the “Percent Gcase Activation, 1 μM Test Compound” value is “+ (less than 30% Gcase activation)”.

For the molecule `Cc1cc(N2CCCCC2)nc2c(C(=O)NC(C)C3CC3)cnn12` (stereo not shown) [III-31], the “Percent Gcase Activation, 0.1 μM Test Compound” value is “*** (greater than 20% Gcase activation)” and the “Percent Gcase Activation, 1 μM Test Compound” value was “+++ (Gcase activation greater than 60%)”.

As for `Cc1cc(-c2ccc(F)cc2)nc2c(C(=O)N[C@@H](C)C3CC3)c(Cl)nn12` [III-32], the “Percent Gcase Activation, 0.1 μM Test Compound” value is “** (Gcase activation in the range of 10% up to 20%)” and the “Percent Gcase Activation, 1 μM Test Compound” value was “+++ (Gcase activation greater than 60%)”.

With `Cc1cc(-c2ccc(F)cc2)n2nc(Cl)c(C(=O)N[C@@H](C)C3CC3)c2n1` [III-33], the “Percent Gcase Activation, 0.1 μM Test Compound” value is “* (less than 10% Gcase activation)” and the “Percent Gcase Activation, 1 μM Test Compound” value is listed as “++ (Gcase activation in the range of 30% up to 60%)”.

Consider `Cc1cc(C)n2nc(Cl)c(C(=O)N[C@@H](C)C3CC3)c2n1` [III-34], for which the “Percent Gcase Activation, 0.1 μM Test Compound” value is recorded as “* (less than 10% Gcase activation)” and the “Percent Gcase Activation, 1 μM Test Compound” value is “+ (less than 30% Gcase activation)”.

Regarding `Cc1cc(-c2cccnc2)nc2c(C(=O)NC(C3CC3)C(F)(F)F)cnn12` (stereo not shown) [III-35], the “Percent Gcase Activation, 0.1 μM Test Compound” value was “** (Gcase activation in the range of 10% up to 20%)” and the “Percent Gcase Activation, 1 μM Test Compound” value is on record as “+++ (Gcase activation greater than 60%)”.

Turning to `Cc1cc(-c2ccccn2)nc2c(C(=O)NC(C3CC3)C(F)(F)F)cnn12` (stereo not shown) [III-36], the “Percent Gcase Activation, 0.1 μM Test Compound” value is on record as “*** (greater than 20% Gcase activation)” and the “Percent Gcase Activation, 1 μM Test Compound” value was “+++ (Gcase activation greater than 60%)”.

With `Cc1cc(-c2cccnc2)nc2c(C(=O)N[C@H](C)c3ccc(Cl)cc3)cnn12` [III-37], the “Percent Gcase Activation, 0.1 μM Test Compound” value was “** (Gcase activation in the range of 10% up to 20%)” and the “Percent Gcase Activation, 1 μM Test Compound” value is “+++ (Gcase activation greater than 60%)”.

For `Cc1cc(-c2cccnc2)nc2c(C(=O)N[C@H]3CC[C@H](OC(C)(C)C)CC3)cnn12` [III-38], the “Percent Gcase Activation, 0.1 μM Test Compound” value is recorded as “* (less than 10% Gcase activation)” and the “Percent Gcase Activation, 1 μM Test Compound” value was “+ (less than 30% Gcase activation)”.

For the molecule `Cc1cc(-c2cccnc2)nc2c(C(=O)N[C@H]3CC[C@H](OCC(C)C)CC3)cnn12` [III-39], the “Percent Gcase Activation, 0.1 μM Test Compound” value is given as “** (Gcase activation in the range of 10% up to 20%)” and the “Percent Gcase Activation, 1 μM Test Compound” value is “+++ (Gcase activation greater than 60%)”.

As to `CCCO[C@H]1CC[C@H](NC(=O)c2cnn3c(C)cc(-c4cccnc4)nc23)CC1` [III-40], the “Percent Gcase Activation, 0.1 μM Test Compound” value was “* (less than 10% Gcase activation)” and the “Percent Gcase Activation, 1 μM Test Compound” value is recorded as “+ (less than 30% Gcase activation)”.

As to `Cc1cc(-c2cccnc2)nc2c(C(=O)NC(C(C)C)C(F)(F)F)cnn12` (stereo not shown) [III-41], the “Percent Gcase Activation, 0.1 μM Test Compound” value was “** (Gcase activation in the range of 10% up to 20%)” and the “Percent Gcase Activation, 1 μM Test Compound” value was “+++ (Gcase activation greater than 60%)”.

As for `CCC(NC(=O)c1cnn2c(C)cc(-c3cccnc3)nc12)C(F)(F)F` (stereo not shown) [III-42], the “Percent Gcase Activation, 0.1 μM Test Compound” value is on record as “* (less than 10% Gcase activation)” and the “Percent Gcase Activation, 1 μM Test Compound” value was “+++ (Gcase activation greater than 60%)”.

As for `Cc1cc(-c2cccnc2)nc2c(C(=O)NC(C)C(F)(F)F)cnn12` (stereo not shown) [III-43], the “Percent Gcase Activation, 0.1 μM Test Compound” value is “* (less than 10% Gcase activation)” and the “Percent Gcase Activation, 1 μM Test Compound” value is “++ (Gcase activation in the range of 30% up to 60%)”.

For `Cc1cc(NC2CC2)nc2c(C(=O)NC(C3CC3)C(F)(F)F)cnn12` (stereo not shown) [III-44], the “Percent Gcase Activation, 0.1 μM Test Compound” value is reported as “*** (greater than 20% Gcase activation)” and the “Percent Gcase Activation, 1 μM Test Compound” value is given as “+++ (Gcase activation greater than 60%)”.

For the molecule `Cc1cc(Cl)nc2c(C(=O)NC(C3CC3)C(F)(F)F)cnn12` (stereo not shown) [III-45], the “Percent Gcase Activation, 0.1 μM Test Compound” value is given as “*** (greater than 20% Gcase activation)” and the “Percent Gcase Activation, 1 μM Test Compound” value is recorded as “+++ (Gcase activation greater than 60%)”.

In the case of `COCc1cc(-c2ccc(F)cc2)nc2c(C(=O)N[C@@H](C)C3CC3)cnn12` [III-46], the “Percent Gcase Activation, 0.1 μM Test Compound” value was “* (less than 10% Gcase activation)” and the “Percent Gcase Activation, 1 μM Test Compound” value is listed as “++ (Gcase activation in the range of 30% up to 60%)”.

Turning to `COCc1cc(-c2ccc(F)cc2)nc2c(C(=O)NC(C)(C)C3CC3)cnn12` [III-47], the “Percent Gcase Activation, 0.1 μM Test Compound” value was “** (Gcase activation in the range of 10% up to 20%)” and the “Percent Gcase Activation, 1 μM Test Compound” value is recorded as “+++ (Gcase activation greater than 60%)”.

On to `CCc1cc(-c2ccccn2)n2ncc(C(=O)NC(C)C3CC3)c2n1` (stereo not shown) [III-48], for which the “Percent Gcase Activation, 0.1 μM Test Compound” value is reported as “* (less than 10% Gcase activation)” and the “Percent Gcase Activation, 1 μM Test Compound” value is on record as “++ (Gcase activation in the range of 30% up to 60%)”.

For `CCc1cc(-c2ccccn2)nc2c(C(=O)NC(C)C3CC3)cnn12` (stereo not shown) [III-49], the “Percent Gcase Activation, 0.1 μM Test Compound” value was “* (less than 10% Gcase activation)” and the “Percent Gcase Activation, 1 μM Test Compound” value was “+++ (Gcase activation greater than 60%)”.

Turning to `Cc1cc(-c2ccccn2)nc2c(C(=O)NC(C)C(F)(F)F)cnn12` (stereo not shown) [III-50], the “Percent Gcase Activation, 0.1 μM Test Compound” value was “** (Gcase activation in the range of 10% up to 20%)” and the “Percent Gcase Activation, 1 μM Test Compound” value is “+++ (Gcase activation greater than 60%)”.
